Test system: chronic ocular GVHD
Test: Example 5: second case of chronic ocular GVHD, tear film breakup time by Keratograph 5
Type: in vivo, human
Protocol: A patient with chronic ocular GVHD complained of eye discomfort, burning, and sticking lids. […] Their first-measured tear film breakup time was 7.4 seconds, with an average breakup time of 11.39 seconds. The patient was treated with a single dose of progesterone 1% to their forehead, followed by retesting of the tear film breakup time after 30 minutes. At that time, the first-measured tear film breakup time was 21.03 seconds, with an average breakup time of 21.35 seconds. The tear meniscus height in both eyes increased over 0.6 mm following the single application of progesterone.

Question: With `CC(=O)[C@H]1CC[C@H]2[C@@H]3CCC4=CC(=O)CC[C@]4(C)[C@H]3CC[C@]12C` [progesterone] as the compound, how does the “duration of increased ocular comfort with each dose” value (progesterone twice a day to forehead) read?
Answer: at least 5 hours

Question: And the “increase in tear meniscus height in both eyes” value (single application of progesterone 1% to forehead)?
Answer: over 0.6 mm

Question: And the “first-measured tear film breakup time” value (single dose progesterone 1% to forehead, after 30 minutes, pre-treatment 7.4 seconds)?
Answer: 21.03 s

Question: And the “average tear film breakup time” value (single dose progesterone 1% to forehead, after 30 minutes, pre-treatment 11.39 seconds)?
Answer: 21.35 s
